Source: paper PMC7564829, “Potent Broad-Spectrum Antibacterial Activity of Amphiphilic Peptides against Multidrug-Resistant Bacteria” (Microorganisms, 2020)

How the values were obtained:
[1] = test system: E. coli 1F28; experiment: Thermal and pH stability (residual antibacterial activity by MIC); type: physicochemical; conditions: residual MIC against E. coli 1F28
Source text: (§1) Thermal, pH and proteolytic stability.

[2] = in 0.01 M PBS or water; compared among four active AMPs
[3] = test system: E. coli 1F28 (tet(X4)); experiment: MIC/MBC, broth micro-dilution; type: cell-based; conditions: E. coli 1F28 (tet(X4))
Description: (§2) Experiments were performed with two biological replicates.

[4] = test system: E. coli 1F28; type: cell-based; conditions: E. coli 1F28 and 1A34; 10 mM in MHB
[5] = test system: E. coli 1F28; experiment: Cytoplasmic membrane potential (DiSC3(5)); type: cell-based; conditions: 0 to 128 μg/mL, 60 min
Description: A fluorescent probe DiSC3(5) (Aladdin, Shanghai, China) was utilized to evaluate the effect of WRK-12 on bacterial membrane potential. E. coli 1F28 cells were probed with 3,3′-dipropylthiadicarbocyanine iodide (DiSC3(5), 0.5 μM) for 30 min, and then treated with WRK-12 (0 to 128 μg/mL) or colistin (128 μg/mL) for 60 min. Subsequently, the dissipated membrane potential was determined by monitoring the fluorescence intensity (λexcitation = 622 nm, λemission = 670 nm) using a Microplate reader (Tecan, Männedorf, Switzerland).

[6] = test system: pepsin; conditions: pepsin 10 mg/mL, 1 h preincubation; residual MIC against E. coli 1F28
Description: Thermal, pH and proteolytic stability. WRK-12 was preincubated at different temperatures (from 25 to 121 °C), pH (from 2 to 12) or proteases (pepsin, trypsin and papain, final concentration 10 mg/mL) for 1 h. Samples after pH treatment were readjusted to pH = 7.2 to determine the residual antibacterial activity by MIC tests. Samples after proteases treatment were heated at 80 °C for 30 min, and centrifuged at 13,000× g for 30 min to precipitate proteases, and the residual antibacterial activity of supernatants was tested by MIC analysis.

[7] = target: papain (Carica papaya, UniProt P00784); experiment: Proteolytic stability (residual antibacterial activity by MIC); type: in vitro ADME; conditions: papain 10 mg/mL, 1 h preincubation; residual MIC against E. coli 1F28
Source text: as §1

[8] = test system: E. coli 1F28; experiment: LPS, lipids or NAC inhibition assay (MIC); type: cell-based
Source text: Lipopolysaccharides (LPS), lipids or NAC inhibition assay.

[9] = test system: S. enteritidis ATCC 13076; experiment: microbe, parasite or virus in culture; type: cell-based
Description: as §2

[10] = test system: S. aureus ATCC 29213; experiment: microbe, parasite or virus in culture; type: cell-based
Description: as §2

[11] = test system: S. aureus 215 (cfr + LZD^R); experiment: microbe, parasite or virus in culture; type: cell-based; conditions: S. aureus 215 (cfr + LZD^R)
Description: as §2

[12] = test system: MDR E. coli B2 (mcr-1 + blaNDM-5); experiment: microbe, parasite or virus in culture; type: cell-based
Description: as §2

[13] = test system: E. coli ATCC 25922; experiment: microbe, parasite or virus in culture; type: cell-based
Description: as §2

[14] = test system: E. coli 1N31; experiment: MIC, tigecycline-resistant clinical isolate; type: cell-based; conditions: E. coli 1N31, tigecycline-resistant clinical isolate; broth micro-dilution
Description: as §2

[15] = test system: E. coli 1F16; experiment: MIC, tigecycline-resistant clinical isolate; type: cell-based; conditions: E. coli 1F16, feces, tigecycline-resistant clinical isolate; broth micro-dilution
Description: as §2

[16] = test system: Shigella 1F25; experiment: MIC, tigecycline-resistant clinical isolate; type: cell-based; conditions: Shigella 1F25, feces, broth micro-dilution
Description: as §2

[17] = test system: E. coli 1N28; experiment: MIC, tigecycline-resistant clinical isolate; type: cell-based; conditions: E. coli 1N28, nasal swab, tigecycline-resistant clinical isolate; broth micro-dilution
Description: as §2

[18] = test system: E. coli 2W25; experiment: MIC, tigecycline-resistant clinical isolate; type: cell-based; conditions: E. coli 2W25, water, tigecycline-resistant clinical isolate; broth micro-dilution
Description: as §2

[19] = test system: E. coli 1A34; experiment: MIC, tigecycline-resistant clinical isolate; type: cell-based; conditions: E. coli 1A34, anal swab, tigecycline-resistant clinical isolate; broth micro-dilution
Description: as §2

[20] = test system: E. coli 1C1; experiment: MIC, tigecycline-resistant clinical isolate; type: cell-based; conditions: E. coli 1C1, dust, tigecycline-resistant clinical isolate; broth micro-dilution
Description: as §2

[21] = test system: E. coli 2A19; experiment: MIC, tigecycline-resistant clinical isolate; type: cell-based; conditions: E. coli 2A19, tigecycline-resistant clinical isolate; broth micro-dilution
Description: as §2

[22] = test system: E. coli 1F31; experiment: MIC, tigecycline-resistant clinical isolate; type: cell-based; conditions: E. coli 1F31, tigecycline-resistant clinical isolate; broth micro-dilution
Description: as §2

[23] = test system: E. coli 1F28 biofilm; experiment: Prevention of biofilm formation (crystal violet); type: cell-based; conditions: 24 h
Description: The prevention of biofilm formation was assessed as described previously. Briefly, bacteria (1 × 10^5 CFUs per mL) were exposed to WRK-12 solutions (with final concentrations ranging from 0.25 to 32 μg/mL). As an untreated control, bacteria were exposed to MHB without drugs. After 24 h incubation at 37 °C in a humidified atmosphere, planktonic bacteria were removed by phosphate buffer solution (PBS). Biofilms were fixed with methanol for 15 min, then sucked out the fixative and air dry naturally. Then, biofilms were stained with 0.1% crystal violet for 15 min, washed and dried naturally. Finally, 33% acetic acid was used to dissolve crystal violet. The optical density at 570 nm was determined as a measure of biofilm mass.

[24] = test system: MRSA T144; experiment: MIC/MBC, broth micro-dilution; type: cell-based, Staphylococcus aureus; conditions: MRSA T144
Description: as §2

[25] = broth micro-dilution CLSI 2018, MHB, 18 h, 37 °C
[26] = lowest concentration killing 99.9%, plated on MHA

papain, sequence (P00784 134-345): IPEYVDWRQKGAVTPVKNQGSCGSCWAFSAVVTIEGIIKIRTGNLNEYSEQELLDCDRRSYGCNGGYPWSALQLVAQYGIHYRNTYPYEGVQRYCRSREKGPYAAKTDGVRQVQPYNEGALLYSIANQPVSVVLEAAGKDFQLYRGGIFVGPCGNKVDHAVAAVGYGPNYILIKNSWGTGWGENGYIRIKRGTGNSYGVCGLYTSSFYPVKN

Ac-WRLRWKTRWRLK-NH2 [WRK-12]
activity reduction after thermal treatment ([1]; 121 °C, 1 h): 50% | activity reduction after pH treatment ([1]; alkaline environment pH = 12, 1 h, readjusted to pH 7.2): 50% | remaining antibacterial activity after pH treatment ([1]; pH 2 to 10 for 1 h, readjusted to pH 7.2): completely retained its activity | remaining antibacterial activity after thermal treatment ([1]; treatment under 100 °C for 1 h): completely retained its activity | solubility [2]: highest solubility | MIC [3, 25]: 2 µg/mL | MBC [3, 26]: 8 µg/mL | activity in the presence of monovalent cations (Na^+ and K^+) [4]: not any loss of activity | membrane potential (ΔΨ), DiSC3(5) fluorescence [5]: significantly dissipated membrane potential | proteolytic stability [6]: resistant | proteolytic stability [7]: sensitive | MIC increase with exogenous CL ([8]; 16 μg/mL CL, E. coli 1F28): 16 fold | MIC increase with exogenous PG ([8]; 16 μg/mL PG, E. coli 1F28): 16 fold | effect of exogenous LPS on antibacterial activity ([8]; LPS from E. coli O111:B4, 0 to 128 μg/mL, MIC against E. coli 1F28, chequerboard broth microdilution): weakened WRK-12 activity in a dose-dependent manner | MIC increase with ROS scavenger NAC ([8]; NAC 2.5 mM, E. coli 1F28, three independent experiments): 6 fold | effect of exogenous PE on antibacterial activity ([8]; PE 0 to 16 μg/mL, E. coli 1F28): mildly impaired WRK-12 activity | MBC ([9]; ATCC 13076, 4 h): 4 µg/mL | MIC ([9]; ATCC 13076, 18 h): 4 µg/mL | MBC ([10]; ATCC 29213, 4 h): 4 µg/mL | MIC ([10]; ATCC 29213, 18 h): 4 µg/mL | MIC [11, 25]: 2 µg/mL | MBC [11, 26]: 2 µg/mL | MBC ([12]; MDR B2 (mcr-1 + blaNDM-5, 4 h)): 4 µg/mL | MIC decrease relative to WL-9 ([12]; MDR E. coli B2, insertion of three positive amino acids in WL-9): 4 fold | MBC ([13]; ATCC 25922, 4 h): 8 µg/mL | MIC ([13]; ATCC 25922, 18 h): 4 µg/mL | MIC [14]: 16 µg/mL | MIC [15]: 4 µg/mL | MIC [16]: 8 µg/mL | MIC [17]: 8 µg/mL | MIC [18]: 4 µg/mL | MIC [19]: 2 µg/mL | MIC [20]: 4 µg/mL | MIC [21]: 16 µg/mL | MIC [22]: 4 µg/mL | inhibition of biofilm formation ([23]; 0.5 μg/mL, 37 °C, crystal violet OD570): significant inhibition effect | biofilm mass ([23]; 2 μg/mL or higher, crystal violet staining): drastically reduced | MIC [24, 25]: 2 µg/mL | MBC [24, 26]: 2 µg/mL
